Data reported in patent US7745578B2, “Fugetactic proteins, compositions and methods of use” (The General Hospital Corporation, priority 2003, dated 2010).

Assays:
EL4 cells = assay: Viability of EL4 cells after inhibitor treatment; type: cell-based; conditions: EL4 cells in HSF, Brefeldin A 10 μg/ml for 24 hours
Experimental: EL4CM24 was heat inactivated at 42° C. for 1 hour prior to being used in the transmigration assays described above. […] EL4CM24 was incubated with hydrated proteinase K agarose (Sigma-Aldrich; St. Louis, Mo.) at 1 mg/ml for 1 hour at 37° C. in a 5% CO2 humidified incubator then filtered through a 0.2 μm pore-size filter prior to being used in the transmigration and intraperitoneal assays. Murine T-cells were incubated with pertussis toxin (Sigma-Aldrich; St. Louis, Mo.) at 100 ng/ml for 1 hour at 37° C. in a 5% CO2 humidified incubator, prior to being used in the transmigration assays. EL4CM24 was incubated with radiciol (Sigma-Aldrich; St. Louis, Mo.) for two hours at room temperature at concentrations 0.1 μg/ml and 7.3 μg/ml. The transmigration was then carried out using the EL4CM24 mixture. As a control, transmigration assays were also carried out using gradients of HSF media supplemented with 7.3 μg/ml of radicol or using EL4CM24-radicicol mixtures from which excess radiciol had been removed using 5 kDa size exclusion Centricon Ultrafree filters (Millipore; Billerica, Mass.). EL4 cells in HSF were also exposed to Geldanamycin at 1.2 μM or 200 nM prior to use of the CM in transmigration assays. EL4 cells in HSF were also exposed to Brefeldin A at 10 μg/ml overnight for a full 24 hours prior to use of the EL4CM24 in transmigration assays. […]

murine T-cells = assay: Quantitative transmigration assay (ChemoTx), negative gradients of EL4 conditioned media; type: cell-based, C57BL/6 mice; conditions: compared with untreated EL4CM24
Experimental: C57BL/6 mice (4 to 8 weeks old) (Jackson Laboratories; Bar Harbor Me.) were euthanized, and dissection of superficial cervical, axillary, brachial and inguinal lymph nodes was performed under sterile conditions. Dissected lymph nodes were then physically disaggregated and a cell suspension generated. The cell suspension was then enriched for T cells by depletion of non-T cells using MACS Pan T cell isolation kit for mouse leukocytes (Miltenyi Biotec; Auburn, Calif.).
Quantitative transmigration assays were carried out as described previously. In brief, ChemoTx chemotaxis 30 μl well plates with 3 μm pore size filters (Neuro Probe; Gaithersburg, Md.) were used. 20,000 murine T-cells were loaded in the upper chamber of the ChemoTx system and subjected to positive, negative and uniform gradients of EL4CM24 in a standard checkerboard analysis of cell migration. The peak concentrations used in each gradient were 1 in 2, 1 in 10, and 1 in 100 dilutions of EL4CM24 with 10.5 media; Isocove's supplemented with 0.5% fetal calf serum, 50 units/ml Penicillin, 50 μg/ml Streptomycin and 292 μg/ml L-Glutamine (Mediatech; Herndon, Va.). […] The chemotactic index was calculated as the quotient of the average number of cells migrating in response to EL4CM24 and the average number of cells migrating in response to media alone. […]

[1] = system: T-cell infiltration into the peritoneal cavity; assay: Intraperitoneal injection of conditioned media and analysis of lymphocyte infiltration; parameters: species or system BALB/c-DO11 mice; conditions: after immunoprecipitation of HSP90α from EL-4 CM with a monoclonal antibody; immune challenge in vivo
Experimental: BALB/c-DO11 mice (kindly provided by Dr. Iacomini, Massachusetts General Hospital) were primed by subcutaneous injection with 100 μl of ovalbumin (ICN Biomedicals; Costa Mesa, Calif.) dissolved in Freund's complete adjuvant (Pierce Biotechnology; Rockford, Ill.) at a concentration 1 mg/ml. Three days later, mice were injected intraperitoneally with 250 μl of ovalbumin dissolved in sterile water at concentration a 0.4 mg/ml. 24 hours later, experimental mice were injected intraperitoneally with 250 μl of EL4CM24, while control mice were injected intraperitoneally with 250 μl of HSF media or protease treated EL4CM24. 24 hours later, cells were extracted from the intraperitoneal space by lavage with 5 ml of cold phosphate buffered saline (Mediatech; Herndon, Va.) and aspiration with a 10 ml syringe and 21-gauge needle. Peritoneal lavage cells were counted on a hemocytometer and then immuno-stained for anti-CD3, CD4, CD8 and TCR-kj-OVA lymphocyte expression (BD BioSciences; San Jose, Calif.) and anti-CD4 (Caltag Laboratories; Burlingame, Calif.) with antibodies labelled with Percp and PE (phytoerythrin) known fluorophor labels. T-cells expressing CD3+, CD3+ CD4+, CD3+ CD8+, CD3+ TCR-kj-OVA were then determined by FACS analysis.

Molecule | level of migration of lymphocytes (murine T-cells) | also measured
C[C@H]1CCC/C=C/[C@@H]2C[C@H](O)C[C@H]2[C@H](O)/C=C/C(=O)O1 [Brefeldin A] |  | viability (EL4 cells): Greater than 65%
C[C@@H]1C[C@H]2O[C@@H]2/C=C\C=C\C(=O)Cc2c(Cl)c(O)cc(O)c2C(=O)O1 [radicicol] | not significantly reduced | 
HSP90α: heat shock protein in EL-4 conditioned medium, removed by immunoprecipitation with a monoclonal antibody |  | reduction in the fugetactic effect of the CM on T-cells infiltrating the peritoneal cavity [1]: four-fold reduction
pertussis toxin | significantly reduced | 
